In patent US20030207812A1, “Cd45 inhibitors” (priority 2002, published 2003) one finds IC50 and CC50 data, which are given here for 22 molecules.

Structures are written as SMILES. pIC50: −log10 of the molar value. Read-outs that look alike come from different tables or passages of the source. Where a SMILES comes first, the peptide text is derived from it. The star is where a group is joined. 3Phenanthroyl(9,10-dioxo) = O=C1C(=O)c2ccc(C(=O)*)cc2-c2ccccc21; X1 = O=C1C(=O)c2cc(N*)ccc2-c2ccccc21

In data set [1] the target is T1, CD45 (Homo sapiens, UniProt P08575).
T1 construct: incubating the cytosolic portion of CD45 with the compounds and p-nitrophenyl phosphate (pNPP); purchased BIOMOL (Plymouth Meeting, Pa.)
T1 sequence (P08575 599-1306 limits assumed): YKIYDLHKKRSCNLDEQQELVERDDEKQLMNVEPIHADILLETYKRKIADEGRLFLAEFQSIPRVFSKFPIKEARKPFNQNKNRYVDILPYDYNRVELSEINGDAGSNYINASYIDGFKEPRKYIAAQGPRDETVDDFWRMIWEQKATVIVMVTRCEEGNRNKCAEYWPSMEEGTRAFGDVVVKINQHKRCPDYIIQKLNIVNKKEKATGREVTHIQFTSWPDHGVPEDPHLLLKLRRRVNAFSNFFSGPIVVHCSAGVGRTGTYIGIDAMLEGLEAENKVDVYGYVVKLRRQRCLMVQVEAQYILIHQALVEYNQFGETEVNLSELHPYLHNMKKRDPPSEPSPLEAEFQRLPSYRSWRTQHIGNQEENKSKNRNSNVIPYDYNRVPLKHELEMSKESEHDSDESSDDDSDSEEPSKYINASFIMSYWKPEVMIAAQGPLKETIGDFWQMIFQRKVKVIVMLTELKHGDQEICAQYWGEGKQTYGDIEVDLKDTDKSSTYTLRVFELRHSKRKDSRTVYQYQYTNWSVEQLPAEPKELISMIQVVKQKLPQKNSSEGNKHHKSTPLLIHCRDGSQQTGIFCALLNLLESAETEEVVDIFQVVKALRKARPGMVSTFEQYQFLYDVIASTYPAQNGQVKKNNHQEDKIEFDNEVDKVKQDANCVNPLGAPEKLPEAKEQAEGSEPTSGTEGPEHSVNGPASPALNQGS
As to the kind of experiment: Phosphatase assay using lck 10-mer as substrate. Format: biochemical. The conditions noted are these: CD45 phosphatase, lck carboxy-terminal peptide TEGQpYQPQP substrate, pH 7.2; read-out: Ick IC50. Here is the method:
Phosphatase assay using lck 10-mer as substrate:
Phosphatase activity was assayed in 96 well plates in a buffer containing final concentrations of 25 mM HEPES at pH 7.2, 5 mM DTT and 10 μg/mL BSA using the lck carboxy-terminal peptide TEGQpYQPQP as the substrate (Cho, H., Krishnaraj, R., Itoh, M., Kitas, E., Bannwarth, W., Saito, H., Walsh, C. T. 1993. Substrate specificities of catalytic fragments of protein tyrosine phosphatases (HPTPb, LAR, and CD45) toward the phosphotyrosylpeptide substrates and thiophosphotyrosylated peptides as inhibitors. Protein Science 2:977-984). Compounds were tested in a range from 30 to 0.01 μM in a final concentration of 5% DMSO. Enzyme was incubated with substrate with or without compound, at room temperature for 1.5 h. At the end of the incubation period, BIOMOL “Green Reagent” (BIOMOL, Plymouth Meeting, Pa.) was added to each well, the plates incubated at room temperature for 30 min and absorbance read at 620 nm.

In data set [2] the target is T1, CD45. Description: Phosphatase assay using pNPP as substrate. It counts as biochemical. Here is the method: Phosphatase assay using pNPP as substrate:
CD45 enzyme was obtained from BIOMOL (Plymouth Meeting, Pa.). Phosphatase activity was assayed in a buffer containing final concentrations of 25 mM imidazole at pH 7.0, 50 mM NaCl, 2.5 mM ethylenediaminetetraacetic acid (“EDTA”), 5 mM dithiothreitol (“DTT”) and 10 μg/mL bovine serum albumin (“BSA”) using pNPP as a substrate.

In data set [3] the test system is T cells (PBMC). As to the kind of experiment: cells. Format: cell-based, human. Conditions: read-out: T cell prolif. IC50. As for the experimental part:
Cell isolation and T cell proliferation assay:
Whole blood was obtained from healthy human blood donors. Peripheral blood mononuclear cells (“PBMC”) were isolated using Lymphoprep density-gradient centrifugation (Nycomed Amersham, Oslo, Norway), washed, counted and resuspended at 2×10^6 cells/mL in RPMI 1640 medium containing glutamine, 0.1 mg/mL gentamycin and 10% heat inactivated human serum. PBMC were transferred to 96-well plates (2×10^5 cells/well) containing compound or vehicle control, with the final concentration of DMSO not to exceed 0.3%, and incubated for 1 hour before addition of the activating anti-CD3 antibody, OKT3 (30ng/mL). After 24 hours in culture, the cells were pulsed with [^3H]thymidine (1 μCi/well) overnight and harvested the next day onto 96-well Packard GF/C filter plates using a Packard Cell Harvester (Packard Instruments, Meriden, Conn.). The filter plate was dried, the bottom of the plate sealed, 25 μL of Microscint 20 scintillation fluid added to each well, the top of the plate sealed with TopSeal-A, and the plate counted on a Packard TopCount. The data from the TopCount is transferred into Excel 5 (Microsoft, Redmond, Wash.) and formatted for EC50 determination using Prism software (GraphPad Software, San Diego, Calif.).

Data set [4] is described as follows: Cytotoxicity assay (Calcein-AM uptake). The conditions noted are these: human, PHA-expanded T-cell lymphoblasts from PBMC.
The mark [5] stands for this setting: CD45 phosphatase, pNPP substrate, pH 7.0, read-out: pNPP IC50.
Setting [6] is: human PBMC, OKT3 30 ng/mL, [3H]thymidine.

`O=C(Nc1ccc2c(c1)C(=O)C(=O)c1ccccc1-2)c1ccccc1F` [Example 1, N-(9,10-Dioxo-9,10-dihydro-phenanthren-2-yl)-2-fluoro-benzamide]: the negative-log IC50 (pIC50) was 4.96 in data set [1], 6.22 in data set [2] (setting [5]) and 5.51 in data set [3] (setting [6]). Moreover, the cytotoxic concentration (CC50) in data set [4] was 20 µM.

Turning to `CC(C)(C)C(=O)Nc1ccc2c(c1)C(=O)C(=O)c1ccccc1-2` [Example 4, N-(9,10-Dioxo-9,10-dihydro-phenanthren-2-yl)-2,2-dimethyl-propionamide], the results for the pIC50 in data set [1] and in data set [2] (setting [5]) were 5.42 and 6.70, respectively. The cytotoxic concentration (CC50) in data set [4] is 3.5 µM.

On to `O=C1C(=O)c2ccc(NC(=O)c3ccccc3C(F)(F)F)cc2-c2ccccc21` [Example 13, N-(9,10-Dioxo-9,10-dihydro-phenanthren-3-yl)-2-trifluoromethyl-benzamide], for which the figures for the pIC50 in data set [1] and in data set [2] (setting [5]) were 5.24 and 5.96, respectively. Further, in data set [4], the 50% cytotoxic concentration (CC50) is 14 µM.

As for `Cc1ccc(S(=O)(=O)N(c2ccc3c(c2)C(=O)C(=O)c2ccccc2-3)S(=O)(=O)c2ccc(C)cc2)cc1` [Example 14, N-(9,10-Dioxo-9,10-dihydro-phenanthren-2-yl)-4-methyl-N-[(4-methylphenyl)sulfonyl]-benzenesulfonamide], the pIC50 in data set [1] was < 4.52; in data set [2] (setting [5]), 4.89. Further, the CC50 in data set [4] is 5.3 µM.

`O=C1C(=O)c2cc(-c3cc4ccccc4o3)ccc2-c2ccccc21` [Example 16, 2-Benzofuran-2-yl-phenanthrene-9,10-dione]: the negative logarithm of the IC50 (pIC50) in data set [2] (setting [5]) is 5.43. In addition, in data set [4], the CC50 was 3.6 µM.

On to `O=C1C(=O)c2cc(-c3ccccc3F)ccc2-c2ccccc21` [Example 18, 2-(2-Fluoro-phenyl)-phenanthrene-9,10-dione], for which, in data set [2] (setting [5]), the negative logarithm of the IC50 (pIC50) is 6.12. Also, the cytotoxic concentration (CC50) in data set [4] is 8.4 µM.

As to `COc1ccccc1-c1ccc2c(c1)C(=O)C(=O)c1ccccc1-2` [Example 20, 2-(2-Methoxy-phenyl)-phenanthrene-9,10-dione], in data set [2] (setting [5]), the pIC50 is 6.00. Besides, in data set [4], the CC50 is 8.9 µM.

As to `NC(=O)CC[C@H](NC(=O)c1ccc2c(c1)-c1ccccc1C(=O)C2=O)C(=O)N[C@@H](CCC(N)=O)C(=O)N1CCC[C@H]1C(=O)N[C@@H](CCC(=O)O)C(=O)NCC(=O)O` [Example 34] ({3Phenanthroyl(9,10-dioxo)}-QQPEG-OH), the pIC50 was 5.72 in data set [1] and 6.05 in data set [2].

`NC(=O)CC[C@H](NC(=O)[C@@H]1CCCN1C(=O)[C@H](CCC(=O)O)NC(=O)CNC(=O)c1ccc2c(c1)-c1ccccc1C(=O)C2=O)C(=O)NCC(=O)O` [Example 38] ({3Phenanthroyl(9,10-dioxo)}-GEPQG-OH): the figures for the negative-log IC50 (pIC50) in data set [1] and in data set [2] were 5.66 and 6.15, respectively.

Take `CC(=O)N[C@@H](C)C(=O)N[C@H](C(=O)N[C@@H](CCC(=O)O)C(=O)NCC(=O)N[C@@H](CCC(N)=O)C(=O)N[C@@H](CC(=O)Nc1ccc2c(c1)C(=O)C(=O)c1ccccc1-2)C(=O)O)[C@@H](C)O` [Example 60] (Ac-ATEGQD(X1)-OH): the pIC50 in data set [1] was 5.10; in data set [2] (setting [5]) it was 5.70.

As to `CC(=O)N[C@H](C(=O)N[C@@H](C)C(=O)N[C@H](C(=O)N[C@@H](CCC(=O)O)C(=O)NCC(=O)N[C@@H](CCC(N)=O)C(=O)N[C@@H](CC(=O)Nc1ccc2c(c1)C(=O)C(=O)c1ccccc1-2)C(=O)O)[C@@H](C)O)[C@@H](C)O` [Example 61] (Ac-TATEGQD(X1)-OH), in data set [2] (pH 7, read-out: pNPP IC50), the pIC50 was 5.74.

`CC(=O)N[C@@H](Cc1ccccc1)C(=O)N[C@H](C(=O)N[C@@H](C)C(=O)N[C@H](C(=O)N[C@@H](CCC(=O)O)C(=O)NCC(=O)N[C@@H](CCC(N)=O)C(=O)N[C@@H](CC(=O)Nc1ccc2c(c1)C(=O)C(=O)c1ccccc1-2)C(=O)O)[C@@H](C)O)[C@@H](C)O` [Example 62] (Ac-FTATEGQD(X1)-OH): in data set [2] (pH 7, read-out: pNPP IC50), the pIC50 was 5.85.

In the case of `COC(=O)CCCCCCC(=O)Nc1ccc2c(c1)C(=O)C(=O)c1ccccc1-2` [Example 71, 7-(9,10-Dioxo-9,10-dihydro-phenanthren-2-ylcarbamoyl)-heptanoic Acid Methyl Ester], the pIC50 in data set [1] is 5.43; in data set [2] (setting [5]) it was 6.30. The cytotoxic concentration (CC50) in data set [4] is 14 µM.

`COC(=O)CCCCCCCCC(=O)Nc1ccc2c(c1)C(=O)C(=O)c1ccccc1-2` [Example 72, 9-(9,10-Dioxo-9,10-dihydro-phenanthren-2-ylcarbamoyl)-nonanoic Acid Methyl Ester]: in data set [2] (setting [5]), the negative-log IC50 (pIC50) is < 4.52.

As for `COC(=O)CCC(=O)Nc1ccc2c(c1)C(=O)C(=O)c1cc(NC(=O)CCC(=O)OC)ccc1-2` [Example 82, N-[7-(3-Methoxycarbonyl-propionylamino)-9,10-dioxo-9,10-dihydro-phenanthren-2-yl]-succinamic Acid Methyl Ester], the pIC50 in data set [1] was 5.54; in data set [2] (setting [5]) it was 6.30. Besides, the half-maximal cytotoxic concentration (CC50) in data set [4] was 7 µM.

Consider `Nc1ccc2c(c1)C(=O)C(=O)c1ccccc1-2` [Example 87, 2-Amino-phenanthrene-9,10-dione], for which the negative-log IC50 (pIC50) in data set [1] is 5.64; in data set [2] (setting [5]), 6.40. Moreover, the CC50 in data set [4] was 5 µM.

With `Nc1ccc2c(c1)-c1ccccc1C(=O)C2=O` [Example 88, 3-Amino-phenanthrene-9,10-dione], the negative-log IC50 (pIC50) in data set [1] was 4.98; in data set [2] (setting [5]) it was 5.43. Moreover, the CC50 in data set [4] was 17 µM.

Consider `COC(=O)CCC(=O)Nc1ccc2c(c1)-c1ccccc1C(=O)C2=O` [Example 90, N-(9,10-Dioxo-9,10-dihydro-phenanthren-3-yl)-succinamic Acid Methyl Ester], for which the pIC50 was 5.49 in data set [1] and 6.40 in data set [2] (setting [5]). Further, in data set [4], the CC50 is 18 µM.

With `O=C1C(=O)c2cccc([N+](=O)[O-])c2-c2ccccc21` [Example 93, 4-Nitro-phenanthrene-9,10-dione], the figures for the pIC50 in data set [1] and in data set [2] (setting [5]) were 5.41 and 6.30, respectively. Moreover, the cytotoxic concentration (CC50) in data set [4] was 10 µM.

Consider `O=C1C(=O)c2cccc([N+](=O)[O-])c2-c2ccc([N+](=O)[O-])cc21` [Example 95, 2,5-Dinitro-phenanthrene-9,10-dione], for which the negative-log IC50 (pIC50) in data set [3] (Homo sapiens) is < 4.52. Further, the half-maximal cytotoxic concentration (CC50) in data set [4] is ≥ 30 µM.

As to `O=C(O)c1ccc2c(c1)-c1ccccc1C(=O)C2=O` [Example 98, 9,10-Dioxo-9,10-dihydro-phenanthrene-3-carboxylic Acid], the pIC50 in data set [1] was 5.62; in data set [2] (setting [5]), 6.00; in data set [3] (setting [6]), < 4.52.

`CC(C)(C)OC(=O)CNC(=O)c1ccc2c(c1)-c1ccccc1C(=O)C2=O` [Example 102, [(9,10-dioxo-9,10-dihydro-phenanthrene-3-carbonyl)-amino]-acetic acid tert-butyl ester]: the pIC50 was 5.47 in data set [1] and 6.52 in data set [3] (setting [6]). For the same molecule, the cytotoxic concentration (CC50) in data set [4] is 2.5 µM.
